From patent US20180203025A1, “HDL THERAPY MARKERS” (Cerenis Therapeutics Holding SA, priority 2014, published 2018)

Assays:
[1] = system: ABCG1 mRNA in mouse macrophages (J774); assay: ABCG1 gene expression (real-time PCR) in J774 macrophages; format: cell-based
Experimental: J774 were seeded on 6 well plates (300,000 cells/well) and loaded with oxidized-LDL without the use of ^3H-cholesterol. […] Gene expression was assayed using the protocols described in Sections 8.3.2 (RNA extraction); 8.3.4 (reverse transcription), and 8.3.5 (qPCR). ABCG1 gene expression was determined with Taqman probe Mm00437390.m1 according to the manufacturer's protocol. The reference gene used is HPRT1 (Taqman probe: Mm00446968.m1).
(§1) J774 were seeded on 6 well plates (300,000 cells/well) and loaded with oxidized-LDL. […] Gene expression was assayed using the protocols described in Sections 8.3.2 (RNA extraction); 8.3.4 (reverse transcription), and 8.3.5 (qPCR). SR-BI gene (Taqman probe Mm00450234.m1), ABCG1 (Taqman probe Mm00437390.m1), SREBP1 (Taqman probe Mm01138344.m1) and ABCA1 (Taqman probe Mm00442646.m1) expression were determined according to the manufacturer's protocol. The reference gene used is HPRT1 (Taqman probe: Mm00446968.m1).
as §1, with “(qPCR).” for “(qPCR). SR-BI gene (Taqman probe Mm00450234.m1),”, “Mm00437390.m1)” for “Mm00437390.m1), SREBP1 (Taqman probe Mm01138344.m1)”
as §1, with “(qPCR).” for “(qPCR). SR-BI gene (Taqman probe Mm00450234.m1),”, “Mm00437390.m1)” for “Mm00437390.m1), SREBP1 (Taqman probe Mm01138344.m1)”
J774 were seeded on 6 well plates (600,000 cells/well) in DMEM 10% FCS. […] Medium was removed and the macrophages were washed with DMEM. […] Gene expression was assayed using the protocols described in Sections 8.3.2 (RNA extraction); 8.3.4 (reverse transcription), and 8.3.5 (qPCR). ABCG1 (Taqman probe Mm00437390.m1), ABCA1 (Taqman probe Mm00442646.m1) and SR-BI (Taqman probe Mm00450234.m1) expression were determined according to the manufacturer's protocol. The reference gene used is HPRT1 (Taqman probe: Mm00446968.m1).
J774 were seeded on 6 well plates (300,000 cells/well) in DMEM 2.5% FCS. […] The next day, medium was replaced by fresh DMEM supplemented with or without ApoA-I (25 or 250 μg/mL) to initiate ApoA-I cholesterol efflux for 2 hours. The experiment was stopped at different time points: 1) J774 stopped before addition of ApoA-I, 2) J774+DMEM (passive efflux for 2 hours), 3) J774+ApoA-I (25 μg/mL) for 2 hours and 4) J774+ApoA-I (250 μg/mL) for 2 hours. The RNA was extracted with the RiboPure™ kit according to the manufacturer's protocol. Gene expression was assayed using the protocols described in Sections 8.3.2 (RNA extraction); 8.3.4 (reverse transcription), and 8.3.5 (qPCR). ABCA1 (Taqman probe Mm00442646.m1), ABCG1 (Taqman probe Mm00437390.m1), and SR-BI (Taqman probe Mm00450234.m1) expression were determined according to the manufacturer's protocol. The reference gene used is HPRT1 (Taqman probe: Mm00446968.m1).
This study examined the effect of HDL2 on ABCA1, ABCG1 and SR-BI mRNA levels in mouse macrophages. […] J774 were seeded on 6 well plates (300,000 cells/well) and loaded with oxidized-LDL. HDL2 (from 2.5 to 1000 μg/mL) were added for 6 hours on the macrophages and the RNA were extracted with the RiboPure™ kit according to the manufacturer's protocol. Gene expression was assayed using the protocols described in Sections 8.3.2 (RNA extraction); 8.3.4 (reverse transcription), and 8.3.5 (qPCR). ABCA1 (Taqman probe Mm00442646.m1), ABCG1 (Taqman probe Mm00437390.m1) and SR-BI (Taqman probe Mm00450234.m1) gene expression were determined according to the manufacturer protocols.

[2] = system: SREBP-1 mRNA in mouse macrophages (J774); assay: SREBP-1 gene expression (real-time PCR) in J774 macrophages; format: cell-based; conditions: 6 hours
Experimental: The mRNA regulation of those genes expressing ABCA1, ABCG1 and SR-BI is linked to nuclear proteins as LXR, SREBP1 and SREBP2. […] Gene expression was assayed using the protocols described in Sections 8.3.2 (RNA extraction); 8.3.4 (reverse transcription), and 8.3.5 (qPCR). SREBP-1, SREBP-2 and LXR gene expression levels were determined with Taqman probe (Mm01138344.m1, Mm01306292.m1, Mm00443451.m1 respectively) according to the manufacturer's protocol. The reference gene used is HPRT1 (Taqman probe: Mm00446968.m1).
as §1
This study used β-cyclodextrin to examine the effect of β-cyclodextrin on LXR, SREBP1 and SREBP2 mRNA expression in J774 macrophages. J774 were seeded on 6 well plates (300,000 cells/well). β-cyclodextrin (0.03, 0.1, 0.3, 1, 3, 10 and 30 mM) was added for 6 hours on the macrophages and the RNA were extracted with the RiboPure™ kit according to the manufacturer's protocol. Gene expression was assayed using the protocols described in Sections 8.3.2 (RNA extraction); 8.3.4 (reverse transcription), and 8.3.5 (qPCR). SREBP-1, SREBP-2 and LXR gene expression were determined with Taqman probe (Mm01138344.m1, Mm01306292.m1, Mm00443451.m1 respectively) according to the manufacturer's protocol. The reference gene used is HPRT1 (Taqman probe: Mm00446968.m1).

Compound | ABCG1 mRNA level ([1]; Study O, 0.03 to 30 mM, 6 hours) | SREBP-1 mRNA ([2]; Study P, 0.03 to 30 mM) | ABCG1 mRNA expression ([1]; Study B, oxidized-LDL loaded, 25, 250 and 1000 μg/mL, 6 hours) | ABCG1 mRNA level ([1]; Study G, 250 μg/mL, 6 hours, without cAMP) | ABCG1 mRNA level (RQ) ([1]; Study G, overnight cAMP 300 μM, then 250 μg/mL 6 hours) | dose of maximum decrease of ABCG1 mRNA level ([1]; Study I, 6 hours) | doses at which decrease of ABCG1 mRNA level was observed ([1]; Study I, 6 hours, presence or absence of cAMP) [µg/mL] | ABCG1 mRNA level ([1]; Study J, 24 hours treatment, 250 μg/mL) | time for ABCG1 mRNA level to return to baseline after removal ([1]; Study J, after 24 hours at 250 μg/mL) [h] | SREBP-1 gene expression ([2]; Study D, 25, 250 and 1000 μg/mL) | concentration above which SREBP1 decrease and plateau observed ([2]; Study E)
OC[C@H]1O[C@@H]2O[C@H]3[C@H](O)[C@@H](O)[C@@H](O[C@H]4[C@H](O)[C@@H](O)[C@@H](O[C@H]5[C@H](O)[C@@H](O)[C@@H](O[C@H]6[C@H](O)[C@@H](O)[C@@H](O[C@H]7[C@H](O)[C@@H](O)[C@@H](O[C@H]8[C@H](O)[C@@H](O)[C@@H](O[C@H]1[C@H](O)[C@H]2O)O[C@@H]8CO)O[C@@H]7CO)O[C@@H]6CO)O[C@@H]5CO)O[C@@H]4CO)O[C@@H]3CO [β-cyclodextrin, reference compound] | dose-dependent decrease | dose-dependent decrease |  |  |  |  |  |  |  |  | 
CER-001: engineered recombinant human apolipoprotein A-I HDL with sphingomyelin and DPPG; protein-to-phospholipid ratio 1:2.7, 97% Sph and 3% DPPG |  |  | decreased the ABCG1 mRNA at all the doses | decreased | 1 | around 15 μg/mL | 4 to 6 | decrease | 8 | affected SREBP-1 mRNA levels | above 2.5 μg/mL
